From patent US9738610B2, “Indazole derivatives and uses thereof” (Whitehead Institute for Biomedical Research, priority 2012, dated 2017) come the findings set out here.

Structures are written as SMILES.

For one series, the system named is Hsp90. In words: Hsp90 binning reporter assay. It counts as cell-based. To be noted: Saccharomyces cerevisiae, read-out: Hsp90 pathway inhibition IC50. The protocol: Corning white, 384-well plates were obtained from Corning (Catalog No. 8867BC; Lot No. 22609019). Tropix Gal-Screen was obtained from Applied Biosystems (Catalog No. T2359; Lot No. 0903044).
SD Growth Media was obtained from MP Biomedical (Catalog No. 4027-012; Lot No. 119458). Complete Supplement minus adenine was obtained from Sunrise Science (Catalog No. 1029-100; Lot No. 070409). Deoxycorticosterone (DOC) steroid was obtained from Sigma. To prepare the assay media, 100 ml (20% (w/v) dextrose and 780 mg Complete Supplement) was added to 100 ml SD Growth Media. Water was added to a final volume of 1 liter, and the solution was filter sterilized.
For DOC media, 1 ml DOC was added to 100 ml SD-ADE media.
The following test strain was used in this study: Saccharomyces cerevisiae W303 reporter strain (ATCC 201238). […]
The OD 600 of 1 ml of culture in a cuvette was read using a standard optical density reader with growth medium as a background blank. […] Luminescence of the wells was read on a standard plate reader as a measure of relative fungal growth. Envision (Perkin Elmer) plate reader set-up: Top read; Luminescence filter (560 nm) at 0.1 seconds.
Potential inhibition of the Hsp90-based chaperone machinery was evaluated using yeast reporter assays involving the glucocorticoid hormone receptor and the tyrosine kinase, v-Src. […]

Another series is described as follows: Plasma stability. To be noted: % remaining in human plasma after a 5-hour incubation.

As for `COC(=O)Cn1nc(-c2cccc(OC)c2)c2ccccc21` [Compound I-4, methyl 2-(3-(3-methoxyphenyl)-1H-indazol-1-yl)acetate], in the series with Hsp90, the IC50 amounted to 4.18 µM. In addition, the “Plasma Stability” value in “Plasma stability” is “approximately 3%”.
